Data on one molecule can be found in patent US20070049559A1, “Preparations comprising arylazine substituted with a carbonylic moiety to increase the activity of Gelatinase A in ocular cells” (priority 2005, published 2007).

For the test, the system named is MT-MMP. The test is described as follows: Thiopeptolide assay of cell-associated gelatinase activity ascribed to MT-MMP in TM cells. In kind it is cell-based, Rhesus monkey. As to conditions: benzathine (as diacetate salt) combined with an equal weight of test compound in the incubation medium. Here is the method:
Unless specifically noted, all molecules tested were prepared as stock solutions in dimethyl sulfoxide (DMSO) with a final concentration of 10 mg/ml. The stocks were stored in a dessicator at −20 degrees Celsius. In testing the molecules, the molecules were diluted to final concentrations of 0.3 ug/ml and 15 ug/ml in a simplified culture medium based on Ames' medium, called Concanavalin A (Con A) conditioning medium (CACM). The monkey TM cells were incubated with the test molecules for 48 hours.
Control medium of CACM plus DMSO and a positive control with 5 ug/ml Con A plus DMSO were run in parallel. […]
At the end of the incubation period, by means of a spectrophoto-metric plate reader, the optical density (OD) at 410 nm was determined for each well after automatic subtraction of a blank value for a well containing reaction mixture but without cells. The average OD at the two-hour end point for each test molecule at all concentrations in triplicate was calculated. […] As an alternate to the end point OD reading, one may use the mean rate of appearance of the reaction product (mean V), calculated from the best linear fit of the data to absorbance vs. time. […]

Regarding `O=C(O)c1cc(O)c2ccccc2n1` [Kynurenic Acid, kynurenic acid], the “MT-MMP activity in combination with benzathine” value is listed as “evince MT-MMP activity”.
